Measured values taken from patent publication US20040076974A1, “Liver necrosis predictive genes” (priority 2002, published 2004).
Several values for one entry are separate records, joined by “and”; a condition that tells them apart may be missing. Equal entries are not always repeated. Where two headings read alike, the source gives them in different places.

Columns and labels:
[1] = test system: Sprague Dawley rats; details: rat, in vivo, ip; for Score (histopathology liver necrosis severity score): Sprague Dawley, 72 h
Procedure, shortened: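 Toxicity calls (necrosis present or absent at 72 h) and histopathology scores were correlated with tissue gene expression from Crl:CD Sprague Dawley rats. Animals, usually 3 treated with compound by i.p. route and 3 given vehicle, were killed at 6, 24 or 72 h and tissues frozen immediately in liquid nitrogen.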

[2] = test system: toxicologically relevant rat genes (rat CT array); details: rat, in vivo

## CC/C(=C(\c1ccccc1)c1ccc(OCCN(C)C)cc1)c1ccccc1 [tamoxifen]
[1]; 50 mg/kg
  Score (histopathology liver necrosis severity score): 1
  Liver Necrosis: no
[1]; 200 mg/kg
  Score (histopathology liver necrosis severity score): 1
  Liver Necrosis: no
[2]
  14-3-3 zeta expression: 1.06 and 1.114 and 1.024 and 1.069 and 1.078
  60S ribosomal protein L6 expression: 1.136 and 1.258 and 1.391 (2×) and 1.1
  Adenine nucleotide translocator 1 expression: 0.8038 and 0.8428 and 1.025 and 0.963 and 1.349
  Alpha-1 microglobulin/bikunin precursor (Ambp) expression: 1.137 and 1.13 and 1.288 and 1.072 and 1.505
  Alpha-tubulin expression: 0.9413 and 0.9605 and 0.9619 and 0.9049 and 1.355
  Aquaporin-3 (AQP3) expression: 0.9813 and 0.7741 and 0.9894 and 0.9996 and 0.8864
  Beta-actin expression: 0.7738 and 0.942 and 0.6998 and 1.204
  Beta-actin, sequence 2 expression: 0.7894 and 1.034 and 1.023 and 0.5893
  Beta-tubulin, class I expression: 0.7904 and 0.7769 and 1.118 and 1.041 and 1.416
  Biliverdin reductase expression: 1.244 and 1.177 and 0.9432 and 0.9712
  CDK108 expression: 0.7646 and 0.771 and 0.9296 and 1.067 and 0.6341
  Calpactin I heavy chain expression: 1.24 and 0.9779 and 0.9969 and 0.9558 and 1.503
  Calpain 2 expression: 1.074 and 1.028 and 1.069
  Cathepsin B expression: 1.062 and 1.634 and 1.119 and 0.9643 and 1.263
  Cathepsin L, sequence 2 expression: 0.793 and 1.456 and 0.963 and 0.9594
  Cathepsin S expression: 0.8837 and 1.721 and 1.401
  Cyclin D1 expression: 0.9348 and 0.6137 and 1.116 and 1.1 and 0.745
  Cystatin C expression: 0.7987 and 0.8206 and 1.149 and 1.058 and 1.138
  Dynamin-1 (D100) expression: 0.974 and 0.8723 and 0.9822 and 1.024 and 0.9733
  Elongation factor-1 alpha expression: 1.144 and 1.188 and 1.098 and 0.9078 and 1.206
  Equilbrative nitrobenzylthioinosine-sensitive nucleoside transporter expression: 1.073 and 0.9454 and 0.9032 and 1.004 and 0.9505
  F1-ATPase beta subunit expression: 0.7234 and 0.6975 and 0.9473 and 0.9602 and 1.189
  Gamma-actin, cytoplasmic expression: 0.982 and 0.9804 and 1.031 and 1.54
  Glutathione S-transferase theta-1 expression: 0.8059 and 0.9415 and 0.8757 and 1.133
  High affinity IgE receptor gamma chain (FcERIgamma) expression: 0.9724 and 1.018 and 1.021 and 1.327
  Hypoxanthine-guanine phosphoribosyltransferase expression: 0.7468 and 0.8598 and 0.8651 and 0.806 and 0.9251
  IgE binding protein expression: 1.306 and 1.678 and 1.071 and 1.114 and 1.302
  JNK1 stress activated protein kinase expression: 0.666 and 0.9165 and 0.9272 and 0.962 and 0.7174
  Melanoma-associated antigen ME491 expression: 1.025 and 1.238 and 1.062 and 1.098 and 1.559
  Multidrug resistant protein-1 expression: 1.082 and 1.58 and 1.118 and 1.184 and 0.9501
  Multidrug resistant protein-2 expression: 0.8809 and 1.298 and 1.165 and 1.156 and 0.7835
  N-hydroxy-2-acetylaminofluorene sulfotransferase (ST1C1) expression: 1.02 and 0.9797 and 0.9522 and 1.016
  NADP-dependent isocitrate dehydrogenase, cytosolic expression: 0.865 and 1.545
  NIPK expression: 1.08 and 1.011 and 0.9454 and 0.9651
  Organic cation transporter 3 expression: 0.8883 and 1.096 and 1.263
  Ornithine decarboxylase expression: 0.8334 and 1.039 and 1.055 and 1.097 and 1.469
  Osteoactivin expression: 1.459 and 1.435 and 0.9157 and 0.9271 and 1.449
  Paraoxonase 1 expression: 0.7398 and 0.6886 and 1.221 and 1.224
  Phase-1 RCT-24 expression: 0.8968
  Phase-1 RCT-39 expression: 1.47 and 0.9339 and 0.9947
  Phase-1 RCT-43 expression: 0.9905 and 0.9704 and 0.9375
  Phase-1 RCT-57 expression: 0.8991 and 0.6888
  Phase-1 RCT-78 expression: 0.8505 and 0.8237
  Phase-1 RCT-81 expression: 1.102
  Phase-1 RCT-107 expression: 0.9169 and 0.6899
  Phase-1 RCT-109 expression: 0.6916
  Phase-1 RCT-117 expression: 0.9421 and 0.9667
  Phase-1 RCT-138 expression: 0.9832
  Phase-1 RCT-144 expression: 0.8629
  Phase-1 RCT-146 expression: 0.9994
  Phase-1 RCT-149 expression: 1.1 and 0.8836
  Phase-1 RCT-154 expression: 0.8651 and 0.9418 and 0.9917
  Phase-1 RCT-156 expression: 1.103
  Phase-1 RCT-164 expression: 0.9378 and 0.8318 and 0.9484
  Phase-1 RCT-173 expression: 0.7045 and 0.5898
  Phase-1 RCT-174 expression: 0.7203 and 0.6816
  Phase-1 RCT-179 expression: 1.2 and 0.9105 and 1.544
  Phase-1 RCT-192 expression: 0.999
  Phase-1 RCT-207 expression: 0.9742
  Phase-1 RCT-211 expression: 0.8217 and 0.6431
  Phase-1 RCT-213 expression: 0.8004
  Phase-1 RCT-227 expression: 0.8538
  Phase-1 RCT-260 expression: 0.974 and 0.93
  Phase-1 RCT-290 expression: 0.5411 and 0.6526
  Poly(ADP-ribose) polymerase expression: 0.8263 and 1.077 and 0.8901 and 0.8489 and 1.291
  Pyruvate kinase, muscle expression: 1.141 and 1.584 and 1.146 and 1.081 and 0.8598
  Ribosomal protein L13A expression: 1.178 and 0.9908 and 0.8711
  Ribosomal protein S8 expression: 1.069 and 1.043 and 1.983 and 1.441
  Ribosomal protein S17 expression: 0.9563 and 0.9932 and 1.772 and 1.494
  Stathmin expression: 0.8925 and 1.067 and 1.025 and 0.9726 and 0.8514
  Thioredoxin-1 (Trx1) expression: 0.9876 and 1.146 and 1.089 and 0.8216 and 0.7283
  Thymosin beta-10 expression: 0.8732 and 1.234 and 1.068 and 0.8379
  Tissue plasminogen activator expression: 0.8347 and 0.7599 and 0.9719 and 1.009 and 1.011
  Transitional endoplasmic reticulum ATPase expression: 0.9168 and 0.8359 and 1.015 and 0.9607 and 1.436
  Ubiquitin conjugating enzyme (RAD 6 homologue) expression: 0.9338 and 0.984 and 0.8685 and 0.6936 and 1.384
  Uncoupling protein 2 expression: 1.105 and 1.472 and 1.007 and 0.9206
  Zinc finger protein expression: 0.8577 and 1.115 and 0.9673 and 0.8957 and 1.145
  p55CDC expression: 1.198 and 1.343 and 1.163 and 1.148 and 0.9509
  {Phase-1 RCT 98} expression: 0.8993 and 0.665 and 1.028 and 1.025
  {Ribosomal protein 16} expression: 1.136 and 1.255 and 1.519
